# Entries after “also recorded” stand apart in the source; their conditions may differ. Like-named read-outs stand apart in the source and are kept apart here.
# How the values were obtained:
# CDK1/CycE1 = CDK1/CycE1 (Homo sapiens, UniProt P06493); experiment: Kinase profiling; assay type: biochemical; details: 10 semi-logarithmic dilutions from 50 μM, singlicate
# CDK4/CycD1 = CDK4/CycD1 (Homo sapiens, UniProt P11802); experiment: Kinase profiling; assay type: biochemical; details: 10 semi-logarithmic dilutions from 50 μM, singlicate
# CDC7/DBF4 = CDC7/DBF4 (Homo sapiens, UniProt O00311); experiment: Kinase profiling; assay type: biochemical; details: 10 semi-logarithmic dilutions from 50 μM, singlicate; read-out: IC50 CDC7/DBF4
# DYRK1A = DYRK1A (Homo sapiens, UniProt Q13627); experiment: Kinase profiling; assay type: biochemical; details: 10 semi-logarithmic dilutions from 50 μM, singlicate
# CDK9/CycT1 = CDK9/CycT1 (Homo sapiens, UniProt P50750); experiment: Kinase profiling; assay type: biochemical; details: 10 semi-logarithmic dilutions from 50 μM, singlicate
# PCTAIRE1/CycY = PCTAIRE1/CycY (Homo sapiens, UniProt Q00536); experiment: Kinase profiling; assay type: biochemical; details: 10 semi-logarithmic dilutions from 50 μM, singlicate
# [1] = system: H460 lung carcinoma cell line; experiment: Proliferation assay: determination of GI50; assay type: cell-based, human; details: Homo sapiens, NCI-H460; Table 3; 48 h; n = 2 independent experiments
# Description: (§1) The following human tumor cell lines, all Retinoblastoma (Rb)-proficient, were used in this study: MDA-MB231 (breast cancer), MDA-MB453 (breast cancer), U87MG (glioblastoma) and H460 (lung cancer). MDA-MB468 (breast cancer) and SW1783 (glioblastoma) Rb-deficient cells were also included in the study, as well as the MCF10A non-transformed mammary epithelial cell line. Tumor cell lines were maintained in DMEM or RPMI-1640 medium, depending on the cell line, supplemented with 10% FBS. MCF10A cells were grown in complete mammary epithelial growth medium (MEGM, Lonza). Cell lines were authenticated by short tandem repeat (STR) loci profiling with the GenePrint® 10 System (Promega).
# (§2) All human cancer cell lines (Table 2) were obtained from the American Type Culture Collection, and were maintained in DMEM (Hyclone) or RPMI-1640 medium (Sigma) supplemented with 10% fetal bovine serum (Sigma). Non-transformed MCF10 cell line was maintained in MEGM Mammary Epithelial Cell Growth Medium (Lonza). Immortalized mouse embryonic fibroblasts (MEFs) were maintained in DMEM with 10% fetal bovine serum.
# (§3) 48 h later cells were fixed with PFA 4% for 15 minutes, stained with 10 μg/ml Hoechst 33342 (Molecular Probes, Thermo Fisher) for 30 minutes and washed twice with PBS. Cells were imaged in a high content screening system (Opera Phoenix™, Perkin Elmer) using a 20× dry objective (30 fields/well). Cell counts were determined by the Opera software (Perkin Elmer) and data were further processed with SPSS software. GI50 was calculated by estimating the absolute IC50 using dose-response inhibition tool in Prism6 (Graphpad Software Inc.).
# [2] = system: MDA-MB-231 breast carcinoma cell line; experiment: Proliferation assay: determination of GI50; assay type: cell-based, human; details: Homo sapiens, MDA-MB-231
# Description: as §1, §2, §3
# [3] = system: U87MG glioblastoma cell line; experiment: Proliferation assay: determination of GI50; assay type: cell-based, human; details: Homo sapiens, U-87 MG
# Description: as §1, §2, §3
# [4] = system: MCF10 non-transformed mammary epithelial cell line; experiment: Proliferation assay: determination of GI50; assay type: cell-based, human; details: Homo sapiens, MCF10; Table 3; 48 h; n = 2 independent experiments
# Description: as §1, §2, §3
# [5] = system: MDA-MB-231 human breast cancer cells; experiment: Cell cycle analysis (DNA content, flow cytometry); assay type: cell-based; details: GI50 concentration; FIG. 1
# Description: FIG. 1 depicts DNA content profiles of MDA-MB-231 human breast cancer cells treated with subject compounds or commercial CDK inhibitors, showing the percentage of cells at the different cell cycle phases after 48 hours of the treatments indicated. (n=6 technical replicates).
# Cells were collected by trypsinization, washed with PBS and fixed with cold 70% ethanol. Cells were treated with 250 μg/ml RNase (Qiagen) for 30 minutes at 37° C. and stained with 10 μg/ml Propidium Iodide (Sigma). Cell cycle was analyzed by flow cytometry using a LSR Fortessa Analyzer. Cell cycle profiles were generated and analyzed with FlowJo software.
# Cells were collected by tripsinization at several times after treatment with the indicated compounds and, then, fixed with cold 70% Ethanol. DNA content was determined by staining with propidium iodide (10 μg/ml, Sigma Aldrich). Data acquisition was performed with a LSR Fortessa analyzer (BD Biosciences) and analysed using FlowJo software.
# CDK1/CycB1 = CDK1/CycB1 (Homo sapiens, UniProt P06493); experiment: Kinase profiling; assay type: biochemical; details: 10 semi-logarithmic dilutions from 50 μM, singlicate
# AKT1 aa1-480 = biological target: T1, AKT1 aa1-480 (Homo sapiens, UniProt P31749); experiment: Kinase profiling; assay type: biochemical; details: 10 semi-logarithmic dilutions from 50 μM, singlicate
# T1 construct: AKT1 aa1-480
# DYRK2 = biological target: T2, DYRK2 (Homo sapiens, UniProt Q92630); experiment: Kinase profiling; assay type: biochemical; details: 10 semi-logarithmic dilutions from 50 μM, singlicate; read-out: IC50 DYRK2
# T2 sequence (Q92630 1-601): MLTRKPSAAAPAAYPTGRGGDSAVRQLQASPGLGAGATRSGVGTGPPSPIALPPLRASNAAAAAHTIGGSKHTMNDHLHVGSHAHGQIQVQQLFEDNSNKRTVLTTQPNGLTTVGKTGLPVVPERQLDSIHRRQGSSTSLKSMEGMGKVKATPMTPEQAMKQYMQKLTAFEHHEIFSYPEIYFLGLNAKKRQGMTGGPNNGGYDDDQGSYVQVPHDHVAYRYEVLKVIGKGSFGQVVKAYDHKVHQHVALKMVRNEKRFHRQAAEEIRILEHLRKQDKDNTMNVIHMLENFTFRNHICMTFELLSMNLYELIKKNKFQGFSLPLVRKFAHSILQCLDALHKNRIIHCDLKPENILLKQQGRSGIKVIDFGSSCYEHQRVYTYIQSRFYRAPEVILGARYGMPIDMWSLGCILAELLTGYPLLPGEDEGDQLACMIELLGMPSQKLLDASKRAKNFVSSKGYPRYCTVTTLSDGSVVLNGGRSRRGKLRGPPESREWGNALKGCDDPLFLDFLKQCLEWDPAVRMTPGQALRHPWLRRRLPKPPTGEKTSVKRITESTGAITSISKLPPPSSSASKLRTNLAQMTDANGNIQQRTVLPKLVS
# CDK19/CycC = CDK19/CycC (Homo sapiens, UniProt Q9BWU1); experiment: Kinase profiling; assay type: biochemical; details: 10 semi-logarithmic dilutions from 50 μM, singlicate
# CDK2/CycE1 = CDK2/CycE1 (Homo sapiens, UniProt P24941); experiment: Kinase profiling; assay type: biochemical; details: 10 semi-logarithmic dilutions from 50 μM, singlicate
# [6] = Table 3, 48 h, n = 3 independent experiments, read-out: GI50 MDA-MB231
# [7] = Table 3, 48 h, n = 3 independent experiments, read-out: GI50 U87MG
# [8] = Table 4, n = 4, read-out: Growth inhibition GI50, Breast cancer pRB Wild-Type MDA-MB-231
# [9] = Table 4, n = 4, read-out: Growth inhibition GI50, Glioblastoma pRB Wild-Type U87MG
# CDK4/CycD1, sequence (P11802 whole entry): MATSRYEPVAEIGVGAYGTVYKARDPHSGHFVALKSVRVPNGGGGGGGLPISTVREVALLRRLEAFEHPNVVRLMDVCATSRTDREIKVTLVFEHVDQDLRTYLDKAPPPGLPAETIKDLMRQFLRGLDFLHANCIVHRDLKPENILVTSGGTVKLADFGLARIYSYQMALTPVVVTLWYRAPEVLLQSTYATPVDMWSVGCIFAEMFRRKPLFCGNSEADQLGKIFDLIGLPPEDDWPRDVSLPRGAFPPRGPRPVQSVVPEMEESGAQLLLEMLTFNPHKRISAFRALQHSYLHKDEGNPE
# CDK4/CycD1, sequence (P24385 whole entry partner): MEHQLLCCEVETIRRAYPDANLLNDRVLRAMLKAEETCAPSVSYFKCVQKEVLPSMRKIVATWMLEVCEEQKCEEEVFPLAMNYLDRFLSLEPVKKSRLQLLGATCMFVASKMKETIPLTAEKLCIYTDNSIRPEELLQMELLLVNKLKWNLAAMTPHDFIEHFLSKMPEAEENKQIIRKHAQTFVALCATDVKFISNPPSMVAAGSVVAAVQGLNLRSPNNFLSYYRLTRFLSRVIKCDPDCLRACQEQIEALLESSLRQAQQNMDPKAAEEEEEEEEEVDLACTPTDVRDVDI
# T1 sequence (P31749 whole entry, the tested form may be a part): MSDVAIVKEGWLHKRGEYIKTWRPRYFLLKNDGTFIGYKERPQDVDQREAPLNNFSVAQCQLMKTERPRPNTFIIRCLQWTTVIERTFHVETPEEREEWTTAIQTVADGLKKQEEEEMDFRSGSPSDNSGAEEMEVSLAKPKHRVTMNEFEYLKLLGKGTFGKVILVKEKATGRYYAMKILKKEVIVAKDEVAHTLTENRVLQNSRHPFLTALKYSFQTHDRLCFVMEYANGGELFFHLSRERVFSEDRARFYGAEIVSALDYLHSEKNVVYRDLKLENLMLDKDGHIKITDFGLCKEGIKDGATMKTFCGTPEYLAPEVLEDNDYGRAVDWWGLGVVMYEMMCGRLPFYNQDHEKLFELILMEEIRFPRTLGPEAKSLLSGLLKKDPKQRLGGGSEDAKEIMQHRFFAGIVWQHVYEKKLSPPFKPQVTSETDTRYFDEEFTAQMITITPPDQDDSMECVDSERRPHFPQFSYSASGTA
# PCTAIRE1/CycY, sequence (Q00536 whole entry, species assumed): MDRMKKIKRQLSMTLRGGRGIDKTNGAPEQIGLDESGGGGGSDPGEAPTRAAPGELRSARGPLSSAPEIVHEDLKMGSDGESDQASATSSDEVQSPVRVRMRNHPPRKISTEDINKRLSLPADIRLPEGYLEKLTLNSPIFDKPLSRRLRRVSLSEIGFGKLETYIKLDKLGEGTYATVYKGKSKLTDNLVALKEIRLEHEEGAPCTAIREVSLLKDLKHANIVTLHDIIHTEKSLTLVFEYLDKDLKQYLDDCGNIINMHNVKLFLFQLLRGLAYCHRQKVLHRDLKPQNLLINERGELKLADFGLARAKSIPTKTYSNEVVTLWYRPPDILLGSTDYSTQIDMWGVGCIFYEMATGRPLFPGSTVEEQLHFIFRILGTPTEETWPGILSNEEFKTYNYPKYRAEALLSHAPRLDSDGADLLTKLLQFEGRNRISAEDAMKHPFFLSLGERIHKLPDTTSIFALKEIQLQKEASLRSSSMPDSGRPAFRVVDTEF
# PCTAIRE1/CycY, sequence (Q8ND76 whole entry partner, species assumed): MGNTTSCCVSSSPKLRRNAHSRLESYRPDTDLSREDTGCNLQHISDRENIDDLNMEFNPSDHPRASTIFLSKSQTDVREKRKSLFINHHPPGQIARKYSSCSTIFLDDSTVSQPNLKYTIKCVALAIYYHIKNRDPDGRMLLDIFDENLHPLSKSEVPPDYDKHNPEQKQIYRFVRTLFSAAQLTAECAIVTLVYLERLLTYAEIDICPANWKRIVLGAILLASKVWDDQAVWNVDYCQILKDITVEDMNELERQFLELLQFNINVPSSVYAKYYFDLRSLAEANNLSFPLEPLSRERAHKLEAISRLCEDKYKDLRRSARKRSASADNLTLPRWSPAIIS
# CDC7/DBF4, sequence (O00311 whole entry): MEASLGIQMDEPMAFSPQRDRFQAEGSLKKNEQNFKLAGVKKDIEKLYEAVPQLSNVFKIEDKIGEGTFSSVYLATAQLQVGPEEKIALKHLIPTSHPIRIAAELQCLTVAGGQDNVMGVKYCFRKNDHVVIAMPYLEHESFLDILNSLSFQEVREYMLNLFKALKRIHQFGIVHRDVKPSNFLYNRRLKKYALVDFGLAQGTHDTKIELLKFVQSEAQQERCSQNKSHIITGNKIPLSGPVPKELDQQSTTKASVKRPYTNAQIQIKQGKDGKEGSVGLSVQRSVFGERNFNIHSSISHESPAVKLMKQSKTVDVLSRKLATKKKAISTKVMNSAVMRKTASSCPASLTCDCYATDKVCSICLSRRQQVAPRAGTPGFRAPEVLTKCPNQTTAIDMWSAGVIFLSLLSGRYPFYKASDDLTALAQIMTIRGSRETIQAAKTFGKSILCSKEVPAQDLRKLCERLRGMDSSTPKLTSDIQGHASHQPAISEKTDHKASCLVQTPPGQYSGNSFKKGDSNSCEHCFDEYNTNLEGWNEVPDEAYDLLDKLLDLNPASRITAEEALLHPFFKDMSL
# CDC7/DBF4, sequence (Q9UBU7 whole entry partner): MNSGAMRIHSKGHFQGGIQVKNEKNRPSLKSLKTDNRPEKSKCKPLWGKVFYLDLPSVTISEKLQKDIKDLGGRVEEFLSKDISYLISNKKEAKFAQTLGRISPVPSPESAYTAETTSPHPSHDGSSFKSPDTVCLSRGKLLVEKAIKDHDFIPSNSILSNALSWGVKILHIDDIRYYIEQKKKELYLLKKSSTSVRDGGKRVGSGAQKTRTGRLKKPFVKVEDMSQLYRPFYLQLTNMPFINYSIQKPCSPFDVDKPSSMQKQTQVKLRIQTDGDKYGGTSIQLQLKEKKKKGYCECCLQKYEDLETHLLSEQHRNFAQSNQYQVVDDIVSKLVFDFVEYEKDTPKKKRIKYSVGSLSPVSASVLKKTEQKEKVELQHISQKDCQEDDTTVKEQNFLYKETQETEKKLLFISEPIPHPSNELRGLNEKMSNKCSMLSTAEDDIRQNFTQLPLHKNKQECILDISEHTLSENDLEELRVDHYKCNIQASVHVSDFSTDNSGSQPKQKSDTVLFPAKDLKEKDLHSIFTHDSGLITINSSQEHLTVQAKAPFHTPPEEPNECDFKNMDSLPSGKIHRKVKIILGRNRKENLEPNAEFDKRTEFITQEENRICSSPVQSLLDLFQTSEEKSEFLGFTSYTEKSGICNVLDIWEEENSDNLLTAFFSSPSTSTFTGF
# CDK1/CycE1, sequence (P06493 whole entry): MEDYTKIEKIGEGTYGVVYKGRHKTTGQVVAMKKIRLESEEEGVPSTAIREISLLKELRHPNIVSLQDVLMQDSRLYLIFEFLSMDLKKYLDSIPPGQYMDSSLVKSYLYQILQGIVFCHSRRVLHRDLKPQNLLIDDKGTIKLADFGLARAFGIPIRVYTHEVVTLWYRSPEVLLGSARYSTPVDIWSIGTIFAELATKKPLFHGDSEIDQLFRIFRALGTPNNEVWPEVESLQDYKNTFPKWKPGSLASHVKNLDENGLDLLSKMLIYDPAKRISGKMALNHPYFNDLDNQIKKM
# CDK1/CycE1, sequence (P24864 whole entry partner): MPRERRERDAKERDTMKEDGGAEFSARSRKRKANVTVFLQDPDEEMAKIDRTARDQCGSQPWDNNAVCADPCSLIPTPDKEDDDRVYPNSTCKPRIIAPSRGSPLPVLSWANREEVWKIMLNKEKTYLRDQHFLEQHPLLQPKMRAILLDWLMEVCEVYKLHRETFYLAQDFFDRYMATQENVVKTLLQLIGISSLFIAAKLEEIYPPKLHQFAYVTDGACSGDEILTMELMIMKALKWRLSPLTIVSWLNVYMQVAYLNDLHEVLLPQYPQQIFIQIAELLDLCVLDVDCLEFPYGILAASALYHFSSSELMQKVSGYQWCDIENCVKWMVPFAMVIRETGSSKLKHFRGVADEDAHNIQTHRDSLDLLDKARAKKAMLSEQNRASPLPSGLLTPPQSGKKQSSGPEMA
# CDK1/CycB1, sequence (P06493 whole entry, the tested form may be a part): as the sequence (P06493 whole entry) above
# CDK1/CycB1, sequence (P14635 whole entry partner, the tested form may be a part): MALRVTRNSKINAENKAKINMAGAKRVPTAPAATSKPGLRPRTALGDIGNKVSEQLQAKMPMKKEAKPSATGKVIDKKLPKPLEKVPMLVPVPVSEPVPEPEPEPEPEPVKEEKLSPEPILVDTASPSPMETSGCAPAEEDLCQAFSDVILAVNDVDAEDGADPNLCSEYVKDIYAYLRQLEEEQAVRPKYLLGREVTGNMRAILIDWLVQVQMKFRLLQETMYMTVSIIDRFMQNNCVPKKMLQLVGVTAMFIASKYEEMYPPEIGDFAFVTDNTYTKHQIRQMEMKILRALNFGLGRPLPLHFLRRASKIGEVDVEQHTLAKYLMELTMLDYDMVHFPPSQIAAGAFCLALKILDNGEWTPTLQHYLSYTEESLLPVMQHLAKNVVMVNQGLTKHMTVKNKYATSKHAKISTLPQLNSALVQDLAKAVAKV
IC50 (CDK1/CycE1) [µM],IC50 (CDK4/CycD1) [µM],IC50 (CDC7/DBF4) [µM],IC50 (DYRK1A) [µM],IC50 (CDK9/CycT1) [µM],IC50 (PCTAIRE1/CycY) [µM],GI50 [1] [µM],"GI50 [2, 6] [µM]","GI50 [3, 7] [µM]",IC50 (CDK1/CycB1) [µM],IC50 (AKT1 aa1-480) [µM],IC50 (DYRK2) [µM],IC50 (CDK19/CycC) [µM],IC50 (CDK2/CycE1) [µM],SMILES,GI50 [4] [µM],cell cycle arrest by DNA content [5],"GI50 [2, 8] [µM]","GI50 [3, 9] [µM]",cell death (sub-G1 accumulation) [5]
0.527,0.00886,1.98,28.8,0.0925,2.02,0.44,1.23,1.12,0.614,> 50,19.7,2.79,0.0717,"O=c1ccc2cnc(Nc3ccc(N4CCC(OCC5(CO)COC5)CC4)cc3)nc2n1[C@@H]1CC2CCC1C2 (stereo partly drawn) [PS016, 8-((2R)-bicyclo[2.2.1]heptan-2-yl)-2-((4-(4-((3-(hydroxymethyl)oxetan-3-yl)methoxy)piperidin-1-yl)phenyl)amino)pyrido[2,3-d]pyrimidin-7(8H)-one]",0.13,induced G2/M arrest,,,
3.04,0.0989,> 50,11.8,0.175,35.9,2.57,4.5,2.44,0.721,> 50,9.24,25.7,3.64,"CC(=O)c1c(C)c2cnc(Nc3ccc(N4CCC(CCCO)CC4)cc3)nc2n([C@@H]2CC3CCC2C3)c1=O (stereo partly drawn) [PS008, 6-acetyl-8-((2R)-bicyclo[2.2.1]heptan-2-yl)-2-((4-(4-(3-hydroxypropyl)piperidin-1-yl)phenyl)amino)-5-methylpyrido[2,3-d]pyrimidin-7(8H)-one]",0.7,induced accumulation of cells in G0/G1,,,
0.173,< 0.0015,1.53,1.38,0.0214,0.00769,0.13,0.14,0.05,0.0407,> 50,4.72,0.234,0.0172,"CC(O)CCN1CCN(c2ccc(Nc3ncc4ccc(=O)n([C@@H]5CC6CCC5C6)c4n3)cc2)CC1 (stereo partly drawn) [PS005, 8-((2R)-bicyclo[2.2.1]heptan-2-yl)-2-((4-(4-(3-hydroxybutyl)piperazin-1-yl)phenyl)amino)pyrido[2,3-d]pyrimidin-7(8H)-one]",0.05,accumulation of cells both in G1 and G2/M phases,,,led to cell death
1.44,0.00315,13.5,3.65,0.0366,4.31,0.37,0.5,0.16,2.05,> 50,1.26,2.85,0.277,"CC(=O)c1c(C)c2cnc(Nc3ccc(N4CCNCC4)cc3)nc2n([C@@H]2CC3CCC2C3)c1=O (stereo partly drawn) [PS010, 6-acetyl-8-((2R)-bicyclo[2.2.1]heptan-2-yl)-5-methyl-2-((4-(piperazin-1-yl)phenyl)amino)pyrido[2,3-d]pyrimidin-7(8H)-one]",0.08,accumulation of cells both in G1 and G2/M phases,,,led to cell death

# More lines, now with the values behind:
SMILES,IC50 (CDK1/CycE1) [µM],IC50 (CDK4/CycD1) [µM],IC50 (CDC7/DBF4) [µM],IC50 (DYRK1A) [µM],IC50 (CDK9/CycT1) [µM],IC50 (PCTAIRE1/CycY) [µM],GI50 [1] [µM],"GI50 [2, 6] [µM]","GI50 [3, 7] [µM]",IC50 (CDK1/CycB1) [µM],IC50 (AKT1 aa1-480) [µM],IC50 (DYRK2) [µM],IC50 (CDK19/CycC) [µM],IC50 (CDK2/CycE1) [µM],GI50 [4] [µM],cell cycle arrest by DNA content [5],"GI50 [2, 8] [µM]","GI50 [3, 9] [µM]",cell death (sub-G1 accumulation) [5]
"CC(=O)c1c(C)c2cnc(Nc3ccc(N4CCC(CCCO)CC4)cc3)nc2n(C2CCCC2)c1=O [PS009, 6-acetyl-8-cyclopentyl-2-((4-(4-(3-hydroxypropyl)piperidin-1-yl)phenyl)amino)-5-methylpyrido[2,3-d]pyrimidin-7(8H)-one]",19.7,0.026,> 50,> 50,0.193,> 50,1.55,3,0.9,32.5,> 50,> 50,36.4,2.94,1.17,induced accumulation of cells in G0/G1; also recorded: arrested cells predominantly in G1,3.3,6.9,
"CC(O)COC1CCN(c2ccc(Nc3ncc4ccc(=O)n([C@@H]5CC6CCC5C6)c4n3)cc2)CC1 (stereo partly drawn) [PS006, 8-((2R)-bicyclo[2.2.1]heptan-2-yl)-2-((4-(4-(2-hydroxypropoxy)piperidin-1-yl)phenyl)amino)pyrido[2,3-d]pyrimidin-7(8H)-one]",1.21,0.0189,5.57,46.8,0.264,3.84,0.19,1.4,2.34,1.96,> 50,> 50,4.13,0.108,0.42,induced G2/M arrest; also recorded: arrested cells in G2/M phases,1.7,2.2,
"O=c1ccc2cnc(Nc3ccc(N4CCC(CCCO)CC4)cc3F)nc2n1[C@@H]1CC2CCC1C2 (stereo partly drawn) [PS002, 8-((2R)-bicyclo[2.2.1]heptan-2-yl)-2-((2-fluoro-4-(4-(3-hydroxypropyl)piperidin-1-yl)phenyl)amino)pyrido[2,3-d]pyrimidin-7(8H)-one]",14.6,1.27,14.6,> 50,8.07,> 50,18,35.2,> 50,42.1,> 50,> 50,24.9,7.29,34.6,,,,
